ChEMBL document CHEMBL4052588, “Design of a Biased Potent Small Molecule Inhibitor of the Bromodomain and PHD Finger-Containing (BRPF) Proteins Suitable for Cellular and in Vivo Studies” (J Med Chem, 2017)
pIC50: −log10 of the molar value.

Columns and labels:
Peregrin = biological target: T1, Peregrin (Homo sapiens, UniProt P55201); assay: Inhibition of human BRPF1 expressed in Escherichia coli BL21 after 1 hr by BROMOscan assay
T1 sequence (P55201 whole entry): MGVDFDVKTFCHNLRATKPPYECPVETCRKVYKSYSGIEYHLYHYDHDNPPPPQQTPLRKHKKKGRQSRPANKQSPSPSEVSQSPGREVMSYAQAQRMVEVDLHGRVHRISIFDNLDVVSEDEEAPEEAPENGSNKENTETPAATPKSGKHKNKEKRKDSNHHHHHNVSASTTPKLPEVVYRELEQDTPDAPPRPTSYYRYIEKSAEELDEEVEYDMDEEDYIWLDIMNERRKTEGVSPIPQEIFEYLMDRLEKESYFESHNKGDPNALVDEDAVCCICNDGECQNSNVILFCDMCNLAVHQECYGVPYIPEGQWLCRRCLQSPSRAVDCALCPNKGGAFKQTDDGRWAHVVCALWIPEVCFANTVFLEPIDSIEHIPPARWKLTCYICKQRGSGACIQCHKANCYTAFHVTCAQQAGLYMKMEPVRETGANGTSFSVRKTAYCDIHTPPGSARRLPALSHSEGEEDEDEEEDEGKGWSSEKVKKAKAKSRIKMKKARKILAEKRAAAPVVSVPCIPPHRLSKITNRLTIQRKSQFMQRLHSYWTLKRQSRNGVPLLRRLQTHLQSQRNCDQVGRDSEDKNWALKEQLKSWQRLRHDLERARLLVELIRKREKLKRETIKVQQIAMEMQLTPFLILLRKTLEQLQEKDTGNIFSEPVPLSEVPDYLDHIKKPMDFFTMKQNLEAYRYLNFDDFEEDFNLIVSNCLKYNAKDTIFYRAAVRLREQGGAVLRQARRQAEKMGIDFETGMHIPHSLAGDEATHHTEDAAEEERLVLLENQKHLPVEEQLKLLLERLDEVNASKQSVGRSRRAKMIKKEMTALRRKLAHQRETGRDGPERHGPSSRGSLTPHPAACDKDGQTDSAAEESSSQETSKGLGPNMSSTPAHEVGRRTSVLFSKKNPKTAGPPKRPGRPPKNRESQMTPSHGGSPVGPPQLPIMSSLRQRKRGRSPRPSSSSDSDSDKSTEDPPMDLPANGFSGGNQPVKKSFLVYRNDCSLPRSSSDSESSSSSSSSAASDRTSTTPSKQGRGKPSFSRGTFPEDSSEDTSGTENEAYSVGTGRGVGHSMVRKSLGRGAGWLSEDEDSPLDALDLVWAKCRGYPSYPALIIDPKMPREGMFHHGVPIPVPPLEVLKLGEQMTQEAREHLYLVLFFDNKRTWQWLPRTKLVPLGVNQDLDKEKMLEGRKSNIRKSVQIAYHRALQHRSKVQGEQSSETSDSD

[1] = biological target: T2, Bromodomain-containing protein 9 (Homo sapiens, UniProt Q9H8M2); assay: Inhibition of human BRD9 expressed in Escherichia coli BL21 after 1 hr by BROMOscan assay
T2 sequence (Q9H8M2 whole entry): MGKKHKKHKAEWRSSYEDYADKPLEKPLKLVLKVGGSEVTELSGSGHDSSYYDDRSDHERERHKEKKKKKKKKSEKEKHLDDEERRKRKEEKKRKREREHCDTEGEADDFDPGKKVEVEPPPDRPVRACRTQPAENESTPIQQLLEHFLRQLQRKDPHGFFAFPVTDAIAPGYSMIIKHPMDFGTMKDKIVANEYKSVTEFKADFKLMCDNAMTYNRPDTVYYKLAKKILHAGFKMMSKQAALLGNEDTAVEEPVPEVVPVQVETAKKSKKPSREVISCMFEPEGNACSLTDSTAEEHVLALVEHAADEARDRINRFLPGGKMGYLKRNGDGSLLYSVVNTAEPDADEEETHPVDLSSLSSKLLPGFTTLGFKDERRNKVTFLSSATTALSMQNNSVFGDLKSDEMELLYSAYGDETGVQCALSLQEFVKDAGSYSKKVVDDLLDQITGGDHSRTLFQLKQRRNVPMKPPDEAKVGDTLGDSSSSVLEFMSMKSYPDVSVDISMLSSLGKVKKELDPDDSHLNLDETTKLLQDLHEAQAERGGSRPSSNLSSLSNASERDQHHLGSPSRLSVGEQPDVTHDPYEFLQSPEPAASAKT

[2] = biological target: T3, Bromodomain and PHD finger-containing protein 3 (Homo sapiens, UniProt Q9ULD4); assay: Inhibition of human BRPF3 expressed in Escherichia coli BL21 after 1 hr by BROMOscan assay
T3 sequence (Q9ULD4 whole entry): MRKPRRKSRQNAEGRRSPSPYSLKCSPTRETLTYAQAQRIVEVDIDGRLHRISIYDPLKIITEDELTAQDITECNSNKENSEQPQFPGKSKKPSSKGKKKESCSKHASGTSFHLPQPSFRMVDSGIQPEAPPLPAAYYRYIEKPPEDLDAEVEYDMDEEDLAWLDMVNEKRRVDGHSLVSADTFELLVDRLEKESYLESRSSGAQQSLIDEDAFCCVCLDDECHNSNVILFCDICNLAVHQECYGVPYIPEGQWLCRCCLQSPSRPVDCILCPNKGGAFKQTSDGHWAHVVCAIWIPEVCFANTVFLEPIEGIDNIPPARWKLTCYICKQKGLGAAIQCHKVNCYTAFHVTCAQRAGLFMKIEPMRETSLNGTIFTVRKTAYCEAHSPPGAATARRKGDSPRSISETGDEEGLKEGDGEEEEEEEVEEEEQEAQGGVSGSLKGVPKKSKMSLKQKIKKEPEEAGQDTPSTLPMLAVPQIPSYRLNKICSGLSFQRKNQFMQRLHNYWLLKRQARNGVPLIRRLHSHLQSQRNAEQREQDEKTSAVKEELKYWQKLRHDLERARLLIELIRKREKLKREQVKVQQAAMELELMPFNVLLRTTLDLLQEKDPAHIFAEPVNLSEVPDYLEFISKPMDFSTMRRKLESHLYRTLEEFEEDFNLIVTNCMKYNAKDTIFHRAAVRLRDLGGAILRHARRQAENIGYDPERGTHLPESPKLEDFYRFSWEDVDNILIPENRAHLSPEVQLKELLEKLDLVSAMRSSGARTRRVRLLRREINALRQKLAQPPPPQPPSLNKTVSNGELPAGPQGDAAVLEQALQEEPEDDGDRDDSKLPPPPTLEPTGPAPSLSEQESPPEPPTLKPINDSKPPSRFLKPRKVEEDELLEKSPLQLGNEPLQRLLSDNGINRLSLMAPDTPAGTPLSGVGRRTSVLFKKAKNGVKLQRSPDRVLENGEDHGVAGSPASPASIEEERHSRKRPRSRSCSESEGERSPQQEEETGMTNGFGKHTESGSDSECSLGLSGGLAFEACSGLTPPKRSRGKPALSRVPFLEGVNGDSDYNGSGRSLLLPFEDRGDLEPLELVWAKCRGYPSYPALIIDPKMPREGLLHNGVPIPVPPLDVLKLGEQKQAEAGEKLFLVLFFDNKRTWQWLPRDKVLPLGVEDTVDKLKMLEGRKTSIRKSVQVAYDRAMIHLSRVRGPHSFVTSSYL

Compound	pIC50 (Peregrin)	pIC50 [1]	pIC50 [2]
Cc1cc2cc(NS(=O)(=O)c3ccc(C#N)cc3)ccc2n(C)c1=O	8.10	6.51	6.59
CCc1cc2cc(NS(=O)(=O)c3ccc(C#N)cc3)ccc2n(CC)c1=O	< 4.00	< 4.00	< 4.00
Cn1c(=O)ccc2cc(NS(=O)(=O)c3ccc(C#N)c(Cl)c3)ccc21	7.21	5.60	5.64

Continued, values first:

pIC50 (Peregrin)	pIC50 [1]	pIC50 [2]	Compound
7.22	6.05	5.03	COc1cc2c(cc1NS(=O)(=O)c1ccc(C#N)cc1)c(C)cc(=O)n2C
6.66	6.38	4.92	COc1ccccc1C(=O)Nc1cc2cc(C)c(=O)n(C)c2cc1N1CCCC1
